Data: article PMC5923142, “Selection and Characterization of Rupintrivir-Resistant Norwalk Virus Replicon Cells In Vitro” (Antimicrobial Agents and Chemotherapy, 2018)
Residue numbers refer to the chain shown, from its start.

Tests used:
[1] = molecular target: T1, MNV I109V protease (polyprotein) (Norovirus, UniProt Q80J95, I1103V); test: In vitro translation, MNV polyprotein processing, I109V protease; assay type: biochemical, murine norovirus; conditions: 80 μM, rabbit reticulocyte lysate
T1 construct: in vitro-transcribed MNV full-length capped RNA containing either the WT or mutant proteases; made in house; host or cells: rabbit reticulocyte lysate (Flexi system, Promega), in vitro translation
Description: (§1) FIG 4 Impact of rupintrivir resistance-conferring mutations on MNV polyprotein processing in vitro. In vitro translation reactions were programmed with equal quantities of in vitro-transcribed MNV full-length capped RNA containing either the WT or mutant proteases in the presence and absence of 80 μM rupintrivir. The [^35S]methionine-labeled products were subsequently analyzed by SDS-PAGE and phosphorimaging analysis. The percentage of fully processed NS3, determined on the basis of the expected molecular mass of the proteins, was calculated and expressed relative to the total amount of viral protein produced.
(§2) In vitro translation reactions were performed using a Flexi rabbit reticulocyte lysate system (Promega). The reaction mixtures were prepared according to the manufacturer's instructions as described for capped mRNAs and programmed with 1 μg of RNA per 25-μl reaction mixture. The reaction mixtures were incubated at 30°C for 90 min prior to the addition of an equal volume of SDS-PAGE sample buffer. Samples were subsequently resolved on a 12.5% SDS-polyacrylamide gel before exposure to a phosphorimager screen.

GV A105V protease = molecular target: T2, GV A105V protease (Norovirus, UniProt Q80J95, A1099V); test: Cell-based FRET assay, GV A105V protease; parameters: species or system murine norovirus (MNV) GV (DQ285629); conditions: GV A105V vs GV WT
T2 construct: plasmids expressing norovirus protease from GI.1 (M87661), GII.4 (DQ658413), or GV (DQ285629) norovirus; expressed in transfected cells; host or cells: HEK293T
T2 sequence (Q80J95 995-1177 A1099V): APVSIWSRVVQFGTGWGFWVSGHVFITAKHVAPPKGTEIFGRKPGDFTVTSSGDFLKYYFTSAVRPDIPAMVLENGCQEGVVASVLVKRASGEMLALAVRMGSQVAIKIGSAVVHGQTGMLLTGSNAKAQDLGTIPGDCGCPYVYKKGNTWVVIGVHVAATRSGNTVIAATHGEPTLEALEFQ
From the text: (§3) The generation of plasmids expressing norovirus protease from GI.1 (M87661), GII.4 (DQ658413), or GV (DQ285629) norovirus and FRET assay constructs has been described previously ([18]). The plasmids carrying GI, GII, and GV proteases with the A105V, I109V, or A105V/I109V mutation were generated from the wild-type (WT) protease constructs described above by the QuikChange site-directed mutagenesis method. Mutant MNV genomes for reverse genetics were generated by two-step PCR mutagenesis of the WT MNV genome (pT7 MNV 3RZ) construct as described previously ([27]). The primers used for generation of the plasmids are listed in Tables S1 and S2 in the supplemental material.
(§4) The YFP/CFP ratio was used to determine FRET efficiency, as described previously ([18], [40]). Briefly, HEK293T cells were plated into black 96-well cell culture microplates (Greiner Bio-One) at a density of 5 × 10^4 cells/well in 100 μl of DMEM containing 10% fetal bovine serum with or without various concentrations of rupintrivir and then incubated for 4 h in a CO2 incubator at 37°C. […] The plates were then analyzed on a SpectraMax i3 instrument in fluorescence mode, with excitation set at 434 nm and the reading emissions set at 477 nm (CFP) and 527 nm (YFP). The background fluorescence from wells transfected with pcDNA3.1 was determined and subtracted. […]

GI A105V mutant protease = molecular target: T3, GI A105V mutant protease (Norovirus, UniProt Q83883, A1205V); test: Cell-based FRET assay, GI A105V protease; parameters: species or system norovirus GI.1 (M87661)
T3 construct: plasmids expressing norovirus protease from GI.1 (M87661); expressed in transfected cells; host or cells: HEK293T
T3 sequence (Q83883 1101-1281 A1205V): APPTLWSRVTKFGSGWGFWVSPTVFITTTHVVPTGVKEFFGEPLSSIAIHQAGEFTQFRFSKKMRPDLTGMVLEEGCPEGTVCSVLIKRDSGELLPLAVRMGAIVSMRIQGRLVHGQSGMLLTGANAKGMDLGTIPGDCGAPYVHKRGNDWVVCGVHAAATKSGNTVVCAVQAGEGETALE
From the text: as §3, §4

[2] = molecular target: T4, GV A105V/I109V mutant protease (Norovirus, UniProt Q80J95, A1099V/I1103V); test: Cell-based FRET assay, GV A105V/I109V protease; parameters: species or system murine norovirus (MNV) GV (DQ285629)
T4 construct: plasmids expressing norovirus protease from GI.1 (M87661), GII.4 (DQ658413), or GV (DQ285629) norovirus; expressed in transfected cells; host or cells: HEK293T
T4 sequence (Q80J95 995-1177 A1099V/I1103V): T2 sequence (Q80J95 995-1177 A1099V) with I109V
From the text: as §3, §4

[3] = molecular target: T5, MNV A105V/I109V protease (polyprotein) (Norovirus, UniProt Q80J95, A1099V/I1103V); test: In vitro translation, MNV polyprotein processing, A105V/I109V protease; assay type: biochemical, murine norovirus; conditions: 80 μM, rabbit reticulocyte lysate
T5 construct: in vitro-transcribed MNV full-length capped RNA containing either the WT or mutant proteases; made in house; host or cells: rabbit reticulocyte lysate (Flexi system, Promega), in vitro translation
Description: as §1, §2

Compound: CCOC(=O)/C=C/[C@H](C[C@@H]1CCNC1=O)NC(=O)[C@@H](CC(=O)[C@@H](NC(=O)c1cc(C)on1)C(C)C)Cc1ccc(F)cc1 [rupintrivir, Rupintrivir]
- polyprotein processing (mature NS3) [1]: still able to produce mature NS3
- impact of substitution on susceptibility (GV A105V protease): no appreciable impact
- IC50 (GI A105V mutant protease; HEK293T cells, GI NS1/2-NS3 FRET substrate): 4.2 ± 1.1 µM
- fold increase in IC50 (GI A105V mutant protease; vs GI WT protease): 3.2 fold
- IC50 ([2]; HEK293T cells, GV NS1/2-NS3 FRET substrate): 2.3 ± 0.3 µM
- fold increase in IC50 ([2]; vs GV WT protease): 2.3 fold
- polyprotein processing (mature NS3) [3]: still able to produce mature NS3
